Patent publication US8742068B2, “Treatment and prevention of inflammatory diseases and autoimmune diseases” (Universiteit Utrecht Holding B.V., priority 2007, dated 2014)

Test system: proteoglycan induced arthritis
Assay: Proteoglycan induced arthritis (PGIA), intranasal pre-treatment
Assay type: in vivo, Balb/c mice
Settings: Example 8: 30 μg intranasally on day −7, −5 and −3 before disease induction
Description: The proteoglycan induced arthritis model (PGIA) is a murine model of rheumatoid arthritis and is described to be a T-cell dependent and antibody mediated model. In the model arthritis is induced by two times injection of human proteoglycan (hPG) in a synthetic adjuvant dimethyldioctadecylammonium (DDA), see Hanyecz A. et al., Achievement of a synergistic adjuvant effect on arthritis induction by activation of innate immunity and forcing the immune response toward the Th1 phenotype. Arthritis Rheum. 2004 50(5):1665-76.
Because arthritis is induced by immunization with a synthetic adjuvant, instead of complete Freund's adjuvant (CFA), the role of interfering immune responses, induced by microbial Hsp's present in CFA, can be excluded. Due to cross reactive responses, between the human and the mouse (self) PG, a chronic and relapsing arthritis develops. After disease development, arthritis severity is scored by clinical assessment of thickness, redness and deformation of the joints on a scale of 1-4 per paw.
Ten female Balb/c mice, retired breeders obtained from Charles River, were randomly divided in two groups. To evaluate the effect of intra nasal treatment with Mycobacterial HSP70 (SEQ ID NO: 55) on PGIA 30 μg Hsp70 in 10 μl PBS was administered on day −7, −5 and −3 before disease induction. PGIA was induced by two times i.p. injection with 400 μg hPG and 2 mg DDA in 200 μl PBS. Subsequently developed arthritis scores were assessed by clinical evaluation as described in Example 7.
Fifteen female Balb/c mice, retired breeders obtained from Charles River, were randomly divided in three groups (five mice per group). To evaluate the effect of intranasal treatment with Hsp70-derived peptides “B1” (SEQ ID NO: 1) and a mixture of C1 (SEQ ID NO: 3) and mC1a (SEQ ID NO: 4) (designated herein as “C1mix”) on PGIA 100 μg peptide in 10 μl PBS was administered on day −7, −5 and −3 before disease induction. Ovalbumin peptide 323-339 (pOva) was used as a control peptide. PGIA was induced by two times i.p. injection with 400 μg hPG and 2 mg DDA in 200 μl PBS. Subsequently developed arthritis scores were assessed by clinical evaluation.
Twelve female Balb/c mice, retired breeders obtained from Charles River, were randomly divided in two groups (six mice per group). To evaluate the effect of intra nasal treatment with Hsp70 derived mC1 a on PGIA 100 μg peptide in 10 μl PBS was administered on day −14, −11, −7 and −4 before disease induction. Ovalbumin peptide (pOva) was used as a control peptide. PGIA was induced by two times i.p. injection with 400 μg hPG and 2 mg DDA in 200 μl PBS. Subsequently developed arthritis scores were assessed by clinical evaluation.
Eighteen female Balb/c mice, retired breeders obtained from Charles River, were randomly divided in three groups (six mice per group). To evaluate the effect of intranasal (i.n.) treatment with Hsp70 derived peptides C1 and its mouse homologue mC1a on PGIA 100 μg peptide in 10 μl PBS was administered on day −7, −5 and −3 before disease induction (see FIG. 28). Ovalbumin peptide (pOva) was used as a control peptide. PGIA was induced by two times i.p. injection with 300 μg hPG and 2 mg DDA in 200 μl PBS. Subsequently developed arthritis scores were assessed by clinical evaluation. • Group A: (pOva): Treated with 100 μg pOva in 10 μl PBS intranasally • Group B (C1): Treated with 100 μg C1 in 10 μl PBS intranasally • Group C (mC1a): Treated with 100 μg mC1a in 10 μl PBS intranasally

## HSP70: full length Mycobacterial HSP70 protein (SEQ ID NO: 55)
  arthritis development (arthritis score): can suppress arthritis development
